Experiments:
Test in all cases: relative viability (nuclei count vs DMSO), 5 days (fraction); higher = more cells survive
ALW-II-49-7 + Pictilisib = compound: Cc1ccc(C(=O)Nc2cccc(C(F)(F)F)c2)cc1Nc1cncc(C(N)=O)c1 [ALW-II-49-7] + CS(=O)(=O)N1CCN(Cc2cc3nc(-c4cccc5[nH]ncc45)nc(N4CCOCC4)c3s2)CC1 [Pictilisib] (partner 1 µM)
In short: (§1)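 Lung cancer cell lines were seeded in 1536-well plates and dosed by pin tool the next day, with either a single drug or a fixed anchor-drug dose combined with five library-drug doses (not always all listed) spaced in √10 steps. Five days later, one step fixed the cells and stained their nuclei (final 0.05% Triton X-100, 1% formaldehyde, 1 ug/ml Hoechst), and nuclei were counted on 4× images. Relative viability is the nuclei count in treated wells divided by the count in vehicle wells, and each value is the median of duplicate plates.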

XMD13-2 + Dasatinib = compound: C1CC1C(=O)NC2=NNC3=C2C=CC(=C3)C4=CC(=CC=C4)C(=O)NC5CC5 [XMD13-2] + Cc1nc(Nc2ncc(C(=O)Nc3c(C)cccc3Cl)s2)cc(N2CCN(CCO)CC2)n1 [Dasatinib] (partner 0.075 µM)
In short: as §1

[1] = compound: Cc1ccc(C(=O)Nc2cccc(C(F)(F)F)c2)cc1Nc1cncc(C(N)=O)c1 [ALW-II-49-7] + CC(=O)c1c(C)c2cnc(Nc3ccc(N4CCNCC4)cn3)nc2n(C2CCCC2)c1=O [Palbociclib] (partner 0.5 µM)
In short: as §1

Cell Line	relative viability (ALW-II-49-7 + Pictilisib; first compound 0.08 µM)	relative viability (ALW-II-49-7 + Pictilisib; first compound 0.253 µM)	relative viability (ALW-II-49-7 + Pictilisib; first compound 0.8 µM)	relative viability (ALW-II-49-7 + Pictilisib; first compound 2.53 µM)	relative viability (ALW-II-49-7 + Pictilisib; first compound 8 µM)	relative viability (XMD13-2 + Dasatinib; first compound 0.05 µM)	relative viability (XMD13-2 + Dasatinib; first compound 0.1581 µM)	relative viability (XMD13-2 + Dasatinib; first compound 0.5 µM)	relative viability (XMD13-2 + Dasatinib; first compound 1.581 µM)	relative viability (XMD13-2 + Dasatinib; first compound 5 µM)	relative viability ([1]; first compound 0.08 µM)	relative viability ([1]; first compound 0.253 µM)	relative viability ([1]; first compound 0.8 µM)	relative viability ([1]; first compound 2.53 µM)	relative viability ([1]; first compound 8 µM)
LXF-289	0.711	0.778	0.8	0.773	0.746	0.301	0.239	0.242	0.141	0.205	0.529	0.682	0.625	0.709	0.674
COR-L23	0.839	0.548	0.739	0.72	0.779	0.585	0.544	0.477	0.42	0.497	0.276	0.271	0.245	0.274	0.259
RERF-LC-KJ	0.599	0.557	0.608	0.542	0.624	0.983	0.918	0.801	0.72	0.694	1.04	1.07	1.04	0.998	1.08
NCI-H1755	0.377	0.531	0.421	0.352	0.307	0.526	0.425	0.418	0.459	0.428	0.439	0.498	0.41	0.415	0.431
PC-14	0.602	0.599	0.696	0.544	0.553	0.279	0.296	0.335	0.242	0.317	0.454	0.568	0.471	0.551	0.41
NCI-H322M	0.449	0.49	0.479	0.499	0.556	0.237	0.239	0.24	0.263	0.283	0.439	0.453	0.486	0.534	0.505
NCI-H1666	0.639	0.578	0.406	0.477	0.501	0.789	0.852	0.861	0.813	0.851	0.663	0.655	0.692	0.67	0.666
A-427	0.687	0.634	0.835	0.775	0.734	0.767	0.792	0.705	0.683	0.536	0.491	0.523	0.556	0.561	0.51
NCI-H1651	0.525	0.38	0.329	0.491	0.572	0.508	0.351	0.423	0.374	0.538	0.522	0.476	0.49	0.439	0.444
NCI-H1793	0.371	0.333	0.293	0.396	0.286	0.457		0.41	0.4	0.429	0.323	0.278	0.29	0.291	0.33
NCI-H520	0.234	0.302		0.264	0.259	0.213	0.261	0.208	0.231	0.182	0.219	0.234	0.205	0.213	0.21
201T	0.666	0.684	0.771	0.714	0.628	0.686	0.533	0.578	0.555	0.563	0.362	0.361	0.376	0.329	0.347
NCI-H460	0.443	0.337	0.357	0.431	0.4	0.636	0.466	0.525	0.578	0.626	0.171	0.185	0.126	0.136	0.111
HARA	0.416	0.386	0.431	0.483	0.497	0.353	0.196	0.279	0.295	0.298	0.239	0.265	0.249	0.261	0.254
NCI-H2170	0.25	0.302	0.294	0.317	0.286	0.791	0.518	0.601	0.55	0.541	0.367	0.451	0.381	0.403	0.364
NCI-H2126	0.493	0.473	0.514	0.471	0.502	0.76	0.595	0.633	0.535	0.561	0.367	0.332	0.337	0.365	0.374
HCC-827	0.988	1.03	0.887	0.815	1.03	0.321	0.21	0.317	0.253	0.337	0.44	0.465	0.466	0.367	0.391
ABC-1	0.879	0.761	0.811	0.79	0.689	0.53	0.542	0.599	0.51	0.426	0.48	0.647	0.59	0.665	0.711
NCI-H650	0.893	0.873	0.763	0.39	0.528	0.463	0.452	0.524	0.39	0.546	0.277	0.309	0.351	0.327	0.236
BEN	0.56	0.592	0.608		0.567	0.321	0.327	0.343	0.246	0.331	0.468	0.452	0.482	0.439	0.481
ChaGo-K-1	0.661	1.04	0.818	1.19	0.442	0.651	0.533	0.604	0.602	0.517	0.949	0.98	0.954	0.887	0.98
NCI-H23	0.524	0.448	0.459	0.526	0.441	0.907	0.725	0.82	0.748	0.99	0.495	0.496	0.573	0.54	0.543
NCI-H1975	0.282	0.308	0.232	0.287	0.281	0.444	0.361	0.467	0.324	0.393	0.608	0.58	0.459	0.59	0.44
COR-L 105	0.543	0.419	0.387	0.344	0.422	0.463	0.325	0.343	0.365	0.323	0.391	0.333	0.41	0.421	0.423
LK-2	0.559	0.648	0.508	0.361	0.513	0.343	0.276	0.361	0.304	0.234	0.767	0.487	0.63		0.673
EKVX	0.42	0.475	0.438	0.398	0.499	0.591	0.445	0.548	0.594	0.497	0.454	0.344	0.413	0.278	0.359
NCI-H2009	0.836	0.828	0.783	0.575	0.438	0.366	0.277	0.432	0.288	0.278	0.211	0.264	0.242	0.203	0.199
NCI-H838	0.342	0.464	0.432	0.46	0.393	0.276	0.293	0.274	0.241	0.318	0.246	0.225	0.203	0.232	0.191
NCI-H2085	0.499	0.496	0.445	0.5	0.537	0.265	0.246	0.232	0.235	0.243	0.441	0.448	0.466	0.432	0.454
